Data as given in patent US12479816B2, “20-HETE formation inhibitors” (UNIVERSITY OF PITTSBURGH—OF THE COMMONWEALTH SYSTEM OF …, priority 2019, dated 2025).

How the values were obtained:
[1] = tested on: 20-HETE formation (CYP4) in HLM; test: Inhibition of 20-HETE formation at 250 or 500 nM in HLM microsomal incubations; type: biochemical, human; conditions: HLM 300 μg/ml, AA 100 μM, 20 min; for HLM % inh. @ 500 nM: 500 nM compound; for HLM % inh. @ 250 nM: 250 nM compound
Summary of the method: (§1)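 Protein 300 μg/ml (microsomes) / 25 pmol/mL (rCYP4F2); AA 100 μM; NADPH 1 mM start; KPi 0.12 M + 5 mM MgCl2; 20 min, 37° C. Read-out: 20-HETE by UPLC-MS/MS (d6 IS), % of vehicle, n=3.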

[2] = target: T1, rCYP4F2 (Homo sapiens, UniProt P78329); test: Inhibition of 20-HETE formation at 250 or 500 nM in rCYP4F2 incubations; type: biochemical; conditions: rCYP4F2 25 pmol/mL; for inhibition at 0.5 µM: 500 nM compound, read-out: rCYP4F2 % inh. @ 500 nM; for inhibition at 0.25 µM: 250 nM compound, read-out: rCYP4F2 % inh. @ 250 nM
T1 sequence (P78329 5-520): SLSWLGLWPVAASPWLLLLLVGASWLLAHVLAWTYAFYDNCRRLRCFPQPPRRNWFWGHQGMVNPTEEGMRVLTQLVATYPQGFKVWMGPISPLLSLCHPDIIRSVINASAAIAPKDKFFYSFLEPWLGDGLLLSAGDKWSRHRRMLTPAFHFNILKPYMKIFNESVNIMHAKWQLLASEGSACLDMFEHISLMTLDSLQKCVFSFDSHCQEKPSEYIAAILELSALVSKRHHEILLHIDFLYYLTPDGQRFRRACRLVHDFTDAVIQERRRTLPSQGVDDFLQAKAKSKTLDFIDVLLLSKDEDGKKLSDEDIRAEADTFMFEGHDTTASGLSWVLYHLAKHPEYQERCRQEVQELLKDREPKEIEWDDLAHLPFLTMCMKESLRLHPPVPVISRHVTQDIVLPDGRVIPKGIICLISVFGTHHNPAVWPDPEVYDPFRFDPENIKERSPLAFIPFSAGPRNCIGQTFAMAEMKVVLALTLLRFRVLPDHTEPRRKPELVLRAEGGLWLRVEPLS
Summary of the method: as §1

[3] = tested on: 20-HETE formation (CYP4) in RKM; test: Inhibition of 20-HETE formation at 250 or 500 nM in RKM microsomal incubations; type: biochemical, rat; conditions: RKM 300 μg/ml; for RKM % inh. @ 500 nM: 500 nM compound; for RKM % inh. @ 250 nM: 250 nM compound
Protocol: To screen the inhibitory effects against 20-HETE formation, compounds were screened in HLM, RLM, RKM and rCYP4F2 microsomal incubations. Compounds dissolved in either 100% methanol or 100% DMSO to yield 10 mM stock solution. Microsomal incubations containing HLM, RLM, RKM (300 μg/ml) or rCYP4F2 (25 pmol/mL), AA (100 μM), NADPH (1 mM) treated with test compounds at various concentrations (500 nM or 250 nM) in a 1 ml total volume in incubation buffer (0.12 M potassium phosphate buffer containing 5 mM magnesium chloride). Reaction was started by adding NADPH to the incubates and was carried out at 37° C. in a shaking water bath for 20 min. Reaction was stopped by placing tubes on ice, followed by adding 125 μl 20-HETE-d6 as internal standard to each sample. Microsomal incubations were extracted with 3 ml ethyl ether twice, dried down under nitrogen gas and reconstituted in 125 μl 80:20 methanol:deionized H2O for analysis. 20-HETE formation was quantified using a validated UPLC-MS/MS assay and normalized by vehicle group. Each compound had three replications (n=3). Vehicle group was used as control to calculate percentage of 20-HETE formation rate. HET0016 (250 nM) was used as positive control. Incubates without NADPH group served as the negative control. An Acquity ultra performance LC autosampler (Waters, Milford, MA) was used to isolate 20-HETE on an UPLC BEH C18, 1.7 μm (2.1×100 mm) reversed-phase column (Waters, Milford, MA) protected by a guard column (2.1×5 mm; Waters, Milford, MA) of the same packing material. Column temperature was maintained at 55° C. Mobile phases consisted of 0.005% acetic acid, 5% acetonitrile in deionized water (A) and 0.005% acetic acid in acetonitrile (B). The flow rate for mobile phases is 0.5 ml/min. The initial mixture of mobile phase was 65:35 of A and B. Mobile phase B increased at 0.4 minutes after injection from 35% to 70% in a linear gradient over 4 minutes, and again increased to 95% over 0.5 minutes where it remained for 0.3 minutes. This was followed by a linear return to initial conditions over 0.1 minutes with a 1.5 minute pre-equilibration period prior to the next sample run. Total run time was 6.4 minutes for each injection. Injection volumes were 7.5 μl. Mass spectrometric analysis was carried out using a TSQ Quantum Ultra (Thermo Fisher Scientific, San Jose, CA) triple quadrupole mass spectrometer using heated electrospray ionization (HESI). Mass spectrometer was operated in negative selective reaction monitoring (SRM) mode with unit resolutions at both Q1 and Q3 set at 0.70 Da full width at half maximum. Scan time was set at 0.01 s and collision gas pressure was 1.3 mTorr. Quantitation of 20-HETE by SRM was performed by monitoring the m/z. Analytical data was acquired and analyzed using Xcaliber 3.0 data system (ThermoFinnigan, San Jose, CA).

[4] = tested on: 20-HETE formation (CYP4) in RLM; test: Inhibition of 20-HETE formation at 250 or 500 nM in RLM microsomal incubations; type: biochemical, rat; conditions: RLM 300 μg/ml; for RLM % inh. @ 500 nM: 500 nM compound; for RLM % inh. @ 250 nM: 250 nM compound
Summary of the method: as §1

| Structure (SMILES) | HLM % inh. @ 500 nM [1] [%] | inhibition at 0.5 µM [2] [%] | RKM % inh. @ 500 nM [3] [%] | RLM % inh. @ 500 nM [4] [%] | HLM % inh. @ 250 nM [1] [%] | inhibition at 0.25 µM [2] [%] | RKM % inh. @ 250 nM [3] [%] | RLM % inh. @ 250 nM [4] [%] |
| --- | --- | --- | --- | --- | --- | --- | --- | --- |
| Cc1ccccc1C1CCN(c2ccn[nH]2)CC1 [Compound 35, 1-(1H-Pyrazol-5-yl)-4-(o-tolyl)piperidine] | 20.00 | 20 | 4.00 | 0.00 | – | – | – | – |
| COc1ccc(C2CCN(c3ccn[nH]3)CC2)c(F)c1 [Compound 46, 4-(2-Fluoro-4-methoxyphenyl)-1-(1H-pyrazol-5-yl)piperidine] | 78.00 | 88 | 0.00 | 47.00 | – | – | – | – |
| COC(=O)c1ccc(C2CCN(c3ccn[nH]3)CC2)cc1 [Compound 11, Methyl 4-(1-(1H-pyrazol-5-yl)piperidin-4-yl)benzoate] | 0.00 | 66.5 | 1.60 | 3.60 | – | – | – | – |
| Fc1ccccc1C1CCN(c2cn[nH]c2)CC1 [Compound 51, 4-(2-Fluorophenyl)-1-(1H-pyrazol-4-yl)piperidine] | 77.00 | 94 | 26.00 | 53.00 | – | – | – | – |
| c1cnc(C2CCN(c3cn[nH]c3)CC2)nc1 [Compound 10, 2-(1-(1H-Pyrazol-4-yl)piperidin-4-yl)pyrimidine] | 0.00 | 0 | 0.00 | 0.00 | – | – | – | – |
| COC(=O)c1ccc(C2CCN(c3cn[nH]c3)CC2)cc1 [Compound 12, Methyl 4-(1-(1H-pyrazol-4-yl)piperidin-4-yl)benzoate] | 0.00 | 63.7 | 6.40 | 18.30 | – | – | – | – |
| COc1ccc(C2CCN(c3ccn[nH]3)CC2)cc1F [Compound 43, 4-(3-Fluoro-4-methoxyphenyl)-1-(1H-pyrazol-5-yl)piperidine] | 82.00 | 79 | 31.00 | 17.00 | – | – | – | – |
| Fc1ccccc1C1CCN(c2ccn[nH]2)CC1 [Compound 50, 4-(2-Fluorophenyl)-1-(1H-pyrazol-5-yl)piperidine] | 47.00 | 69 | 18.00 | 16.00 | – | – | – | – |
| CC(=O)N(C)c1ccc(C2CCN(c3cn[nH]c3)CC2)cn1 [Compound 13, N-(5-(1-(1H-Pyrazol-4-yl)piperidin-4-yl)pyridin-2-yl)-N-methylacetamide] | 29.00 | 1 | 27.00 | 3.00 | – | – | – | – |
| COc1cc(C2CCN(c3cn[nH]c3)CC2)ccn1 [Compound 15, 4-(1-(1H-Pyrazol-4-yl)piperidin-4-yl)-2-methoxypyridine] | 39.00 | 54 | 27.00 | 16.00 | – | – | – | – |
| O=S(=O)(c1ccccc1)C1CCN(c2cn[nH]c2)CC1 [Compound 42, 4-(Phenylsulfonyl)-1-(1H-pyrazol-4-yl)piperidine] | 5.00 | 28 | 0.00 | 0.00 | – | – | – | – |
| c1ccc(OC2CCN(c3ccn[nH]3)CC2)cc1 [Compound 55, 4-Phenoxy-1-(1H-pyrazol-5-yl)piperidine] | – | – | – | – | 12.11 | 0 | 0.00 | 0.00 |
| c1cnc(N2CCN(c3cn[nH]c3)CC2)nc1 [Compound 4, 2-(4-(1H-Pyrazol-4-yl)piperazin-1-yl)pyrimidine] | 0.00 | 0 | 0.00 | 0.00 | – | – | – | – |
| COc1cc(C2CCN(c3ccn[nH]3)CC2)ccn1 [Compound 16, 4-(1-(1H-Pyrazol-5-yl)piperidin-4-yl)-2-methoxypyridine] | 27.00 | 28 | 0.00 | 29.00 | – | – | – | – |
| Fc1ccc(C2CCN(c3cn[nH]c3)CC2)cc1 [Compound 17, 4-(4-Fluorophenyl)-1-(1H-pyrazol-4-yl)piperidine] | 80.00 | 83 | 25.00 | 57.00 | – | – | – | – |
| c1ccc(N2CCN(c3ccn[nH]3)CC2)cc1 [Compound 53, 1-Phenyl-4-(1H-pyrazol-5-yl)piperazine] | – | – | – | – | 14.90 | 3.9 | 8.20 | 4.30 |
| COc1cccc(CC2CCN(c3cn[nH]c3)CC2)c1 [Compound 45, 4-(3-Methoxybenzyl)-1-(1H-pyrazol-4-yl)piperidine] | 71.00 | 73 | 0.00 | 24.00 | – | – | – | – |
| Fc1ccc(C2CCN(c3ccn[nH]3)CC2)cc1 [Compound 18, 4-(4-Fluorophenyl)-1-(1H-pyrazol-5-yl)piperidine] | 66.00 | 70 | 0.00 | 41.00 | – | – | – | – |
| COc1ccc(N2CCN(c3cn[nH]c3)CC2)cc1 [Compound 6, 1-(4-Methoxyphenyl)-4-(1H-pyrazol-4-yl)piperazine] | 31.80 | 6.1 | 1.20 | 0.00 | – | – | – | – |
